Results as given in the Deep4Chem optical property database.
Several values for one entry are separate records, joined by “and”; a condition that tells them apart may be missing. Identical values can stand only once. Values belong to the compound of their own block, whether it stands above or below them.

Assay: solvent given as SMILES

SMILES: CCOC(=O)C(C(=O)OCC)C1=[N+]2C(=C(c3ccc(C)cc3)c3ccc(C(C(=O)OCC)C(=O)OCC)n3[B-]2(F)F)C=C1
absorption maximum (in C1CCCCC1): 515 nm | absorption maximum (in C1CCOC1): 512 nm | absorption maximum (in CCOC(C)=O): 510 nm | absorption maximum (in CO): 509 nm | absorption maximum (in Cc1ccccc1): 514 nm | absorption maximum (in ClC(Cl)Cl): 513 nm

SMILES: C(=C\c1nc(/C=C/c2ccc(N(c3ccccc3)c3ccccc3)cc2)cc(/C=C/c2ccc(N(c3ccccc3)c3ccccc3)cc2)n1)/c1ccccc1
absorption maximum (in ClCCl): 430 nm

SMILES: C[C@]12SC(=O)C=C1c1nc(-c3ccccc3O)[nH]c1C1=CC(=O)S[C@@]12C
absorption maximum (in CC#N): 455 nm

SMILES: O=C(O)CC[N+]1=c2cc3c(cc2CCC1)=Cc1c(c2cc4c5c(c2oc1=O)CCCN5CCC4)O3
absorption maximum (in CC#N): 619 nm | absorption maximum (in CO): 617 nm | absorption maximum (in ClCCl): 637 nm | absorption maximum (in O): 608 nm

SMILES: CC1(C)CCc2c(c3ccccc3c3nc4c5c(c6ccccc6c4nc23)OC(C)(C)CC5)O1
absorption maximum (in C1CCOC1): 458.09 nm | absorption maximum (in C1COCCO1): 459.98 nm | absorption maximum (in CC#N): 459.98 nm | absorption maximum (in CC(C)O): 454.96 nm | absorption maximum (in CCCCCC): 452.08 nm | absorption maximum (in CN(C)C=O): 458.93 nm | absorption maximum (in CO): 457.04 nm | absorption maximum (in ClC(Cl)Cl): 461.04 nm | absorption maximum (in c1ccccc1): 459.98 nm

SMILES: CC(C)(C)c1cccc2c(O)cccc12
absorption maximum (in O): 296 nm

SMILES: F[B-]1(F)OC(c2ccc(Br)cc2)=Cc2ccc3ccccc3[n+]21
absorption maximum (in ClC(Cl)Cl): 430 nm

SMILES: CCCCCCOc1ccc(N(c2ccc(OCCCCCC)cc2)c2ccc(-c3sc(-c4ccc(N(c5ccc(OCCCCCC)cc5)c5ccc(OCCCCCC)cc5)cc4)c4nc(CC)c(CC)nc34)cc2)cc1
absorption maximum (in ClCCl): 532 nm

SMILES: Cc1cccc(C2=CC3=C(c4c(C)cc(C)cc4C)c4cc(-c5cccc(C)c5)c(-c5cccc(C)c5)n4[B-](F)(F)[N+]3=C2c2cccc(C)c2)c1
absorption maximum (in C1CCCCC1): 579 nm | absorption maximum (in C1CCOC1): 577 nm | absorption maximum (in CC#N): 559 nm | absorption maximum (in Cc1ccccc1): 571 nm | absorption maximum (in ClCCl): 573 nm

SMILES: C(=C\c1c[nH]cn1)/c1cc[n+]2ccc(/C=C/c3c[nH]cn3)cc2c1
absorption maximum (in CO): 430 nm

SMILES: CCn1c2ccccc2c2cc(-c3cc(-c4ccc5c(c4)c4ccccc4n5CC)nc(-c4ccccc4)n3)ccc21
absorption maximum (in C1CCOC1): 364 nm | absorption maximum (in CCOC(C)=O): 360 nm | absorption maximum (in CN(C)C=O): 367 nm | absorption maximum (in Cc1ccccc1): 363 nm | absorption maximum (in ClCCl): 363 nm

SMILES: O=C(O)C1=C/C(=C/C=[NH+]/c2ccc3c(C(F)(F)F)cc(=O)oc3c2)CC(C(=O)O)N1 (configuration not stated)
absorption maximum (in O): 519 nm

SMILES: COc1ccc2c3c(c4ccc(OC)cc4c2c1)C(C)(C)c1sccc1-3
absorption maximum (in C1CCCCC1): 391 nm

SMILES: O=[N+]([O-])c1ccc([N+]2=Cc3ccc4c5c(ccc4c3O[B-]2(c2c(F)c(F)c(F)c(F)c2F)c2c(F)c(F)c(F)c(F)c2F)C=[N+](c2ccc([N+](=O)[O-])cc2)[B-](c2c(F)c(F)c(F)c(F)c2F)(c2c(F)c(F)c(F)c(F)c2F)O5)cc1
absorption maximum (in C1CCOC1): 525 nm | absorption maximum (in CC#N): 513 nm | absorption maximum (in CC(C)=O): 515 nm | absorption maximum (in Cc1ccccc1): 549 nm | absorption maximum (in ClCCl): 553 nm

SMILES: CC(C)(C)C1Nc2ccccc2C(=O)N1c1ccccc1 (configuration not stated)
absorption maximum (in CC#N): 348 nm | absorption maximum (in CCCCCCCCCCCCCCCC): 337 nm | absorption maximum (in CO): 356 nm | absorption maximum (in ClC(Cl)Cl): 344 nm | absorption maximum (in c1ccccc1): 343 nm

SMILES: Cc1nc(-c2ccc(N3c4ccccc4C(c4ccccc4)(c4ccccc4)c4ccccc43)cc2)cc(-c2ccc(N3c4ccccc4C(c4ccccc4)(c4ccccc4)c4ccccc43)cc2)n1
absorption maximum (in Cc1ccccc1): 370 nm

SMILES: CC(=O)O[B-]1(OC(C)=O)OC(/C=C/c2ccc(C)cc2)=CC(/C=C/c2ccc(C)cc2)=[O+]1
absorption maximum (in C1CCOC1): 434 nm | absorption maximum (in CC#N): 434 nm | absorption maximum (in CC(C)=O): 434 nm | absorption maximum (in CS(C)=O): 442 nm | absorption maximum (in Cc1ccccc1): 436 nm | absorption maximum (in ClC(Cl)Cl): 440 nm | absorption maximum (in ClCCl): 440 nm

SMILES: CN(C)c1ccc(/C=C/c2cc[n+](C)cc2)cc1
absorption maximum (in C1CCOC1): 483 nm | absorption maximum (in CC1COC(=O)O1): 473 nm | absorption maximum (in CC#N): 470 nm | absorption maximum (in CC(C)=O): 474 nm and 468 nm | absorption maximum (in CC(C)O): 477 nm | absorption maximum (in CCO): 480 nm | absorption maximum (in CCOC(C)=O): 464 nm | absorption maximum (in CO): 476 nm and 474 nm | absorption maximum (in CS(C)=O): 471 nm | absorption maximum (in ClC(Cl)Cl): 500 nm | absorption maximum (in ClCCl): 522 nm | absorption maximum (in O): 448 nm | absorption maximum (in c1ccncc1): 494 nm

SMILES: C[Si]1(C)c2ccc(C#Cc3ccccc3)cc2C=Cc2cc(C#Cc3ccccc3)ccc21
absorption maximum (in ClCCl): 346 nm

SMILES: N#Cc1cc(-n2c3ccccc3c3ccccc32)nc(-n2c3ccccc3c3ccccc32)n1
absorption maximum (in Cc1ccccc1): 342 nm

SMILES: CC(C)[Si](C#Cc1c2cc3ccccc3cc2c(C#C[Si](C(C)C)(C(C)C)C(C)C)c2nc3c(ccc4cc5ccccc5cc43)nc12)(C(C)C)C(C)C
absorption maximum (in CCCCCC): 644 nm

SMILES: CC(C)c1cccc(C(C)C)c1N1C(=O)c2ccc3cc4c(cc5ccc6c7c(ccc4c57)C(=O)N(c4c(C(C)C)cccc4C(C)C)C6=O)c4ccc(c2c34)C1=O
absorption maximum (in ClCCl): 648 nm

SMILES: N#Cc1cc2ccc(O)cc2oc1=N
absorption maximum (in C1CCOC1): 360 nm | absorption maximum (in CC#N): 356 nm | absorption maximum (in CCOC(C)=O): 362 nm | absorption maximum (in CS(C)=O): 355 nm | absorption maximum (in ClC(Cl)Cl): 364 nm

SMILES: COCCOc1cc(C=O)c(OCCOC)cc1C=O
absorption maximum (in CC(C)(C)O): 393 nm | absorption maximum (in CC(C)CO): 391 nm | absorption maximum (in CC(C)O): 390 nm | absorption maximum (in CCCCO): 363 nm | absorption maximum (in CCCO): 363 nm | absorption maximum (in CCO): 362 nm | absorption maximum (in CN(C)C=O): 392 nm | absorption maximum (in CNC=O): 351 nm | absorption maximum (in CO): 353 nm | absorption maximum (in NC=O): 354 nm | absorption maximum (in O): 391 nm

SMILES: N#Cc1cc(C#N)c(-n2c3ccccc3c3ccccc32)cc1-n1c2ccccc2c2ccccc21
absorption maximum (in Cc1ccccc1): 374 nm

SMILES: COC(=O)c1ccc(/C=C2\C=C(c3ccc(C#N)cc3)N(CC(C)C)C2=O)cc1
absorption maximum (in C1COCCO1): 438 nm

SMILES: COC(=O)/C=C/C=C/C1=[N+]2C(=C(c3c(C)cc(C)cc3C)c3ccc(/C=C/C=C/C(=O)OC)n3[B-]2(F)F)C=C1
absorption maximum (in ClCCl): 641 nm

SMILES: N#Cc1c(-n2c3ccccc3c3ccccc32)c(-n2c3ccccc3c3ccccc32)c(-n2c3ccccc3c3ccccc32)c(-n2c3ccccc3c3ccccc32)c1-n1c2ccccc2c2ccccc21
absorption maximum (in Cc1ccccc1): 402.99 nm

SMILES: CCCCCCOc1cc(/C=C/c2cc(OCCCCCC)c(/C=C/c3cc(OCCCCCC)c(/C=C4\C(=O)c5ccccc5C4=C(C#N)C#N)cc3OCCCCCC)cc2OCCCCCC)c(OCCCCCC)cc1/C=C1\C(=O)c2ccccc2C1=C(C#N)C#N
absorption maximum (in ClCCl): 611 nm

SMILES: CC(=O)Nc1ccc(C2=C/C(=C\c3ccc([N+](=O)[O-])cc3)C(=O)O2)cc1
absorption maximum (in C1COCCO1): 438 nm

SMILES: CCN(CC)c1ccc(/C=N/C(C#N)=C(C#N)\N=C\c2ccc(N(CC)CC)cc2O)c(O)c1
absorption maximum (in CC#N): 564 nm

SMILES: COc1c2ccccc2c(OC)c2c1c1ccc(C(F)(F)F)cc1n2C
absorption maximum (in C1CCCCC1): 416 nm | absorption maximum (in CC#N): 417 nm | absorption maximum (in CO): 416 nm | absorption maximum (in ClCCl): 419 nm

SMILES: CCCCN1C(=O)C2=C(c3ccc(-c4ccc5c(c4)C(C)(C)c4ccccc4-5)cc3)NC(=O)C2=C1c1ccc(-c2ccc3c(c2)C(C)(C)c2ccccc2-3)cc1
absorption maximum (in ClCCl): 497 nm

SMILES: CCNc1cc2oc(=O)cc(C(F)(F)F)c2cc1C
absorption maximum (in CC#N): 383 nm

More lines, now with the values ahead:

absorption maximum (in ClCCl): 312 nm
SMILES: C(=C\c1cc(/C=C/c2ccccc2)nc(/C=C/c2ccccc2)n1)/c1ccccc1

absorption maximum (in ClCCl): 310 nm
SMILES: Clc1ccc(N2c3sc4ccccc4c3Sc3sc4ccccc4c32)cc1

absorption maximum (in CO): 760 nm
SMILES: O=C(O)CCCCCn1/c(=C/C=C/C2=[N+](CCCCCC(=O)O)c3cccc4cccc2c34)c2cccc3cccc1c32

absorption maximum (in ClCCl): 357 nm
SMILES: Cc1cc(=O)cc(-c2ccc(-c3nc4ccccn4c3NC3CCCCC3)cc2)o1

absorption maximum (in C1CCOC1): 571 nm
SMILES: F[B-]1(F)n2c(-c3ccccc3)cc(-c3ccccc3)c2C=C2C(c3ccccc3)=CC(c3ccccc3)=[N+]21

absorption maximum (in ClCCl): 336 nm
SMILES: CCCCn1c2ccc(-c3ccc4c(c3)c3c5c(ccc6ccc7ccccc7c65)ccc3n4CCCC)cc2c2c3c(ccc4ccc5ccccc5c43)ccc21

absorption maximum (in ClCCl): 402 nm
SMILES: CCCCn1c2ccccc2c2cc(C#Cc3ccc4ccc5cccc6ccc3c4c56)ccc21

absorption maximum (in ClCCl): 345 nm
SMILES: Oc1ccc(Br)cc1-c1nc2c(c3c1-c1ccccc1CC3)-c1ccccc1CC2

absorption maximum (in ClCCl): 500 nm
SMILES: CCCCCCCCOc1ccc(C2=C3C(C)=CC(C)=[N+]3[B-](F)(F)n3c(C)cc(C)c32)cc1

absorption maximum (in ClCCl): 360 nm
SMILES: O=S1(=O)C2=C(c3ccccc31)C1(c3ccccc32)c2ccccc2-c2sc3ccccc3c21 (configuration not stated)

absorption maximum (in C1CCCCC1): 314 nm
SMILES: CCCC1(CCC)c2ccccc2-c2ccc(-c3ccc(C(C)(C)C)cc3)cc21

absorption maximum (in ClC(Cl)Cl): 620 nm
SMILES: CC1=C(Br)C(/C=C/c2ccncc2)=[N+]2C1=C(c1ccccc1)c1c(C)c(Br)c(/C=C/c3ccncc3)n1[B-]2(F)F

absorption maximum (in CC#N): 710 nm | absorption maximum (in ClCCl): 718 nm
SMILES: F[B-]1(F)n2c(-c3cccs3)cc(-c3ccccc3)c2N=C2C(c3ccccc3)=CC(c3cccs3)=[N+]21

absorption maximum (in ClC(Cl)Cl): 367 nm
SMILES: c1ccc(-c2nc(-c3ccccc3)c(N(c3ccccc3)c3ccccc3)s2)cc1

absorption maximum (in CS(C)=O): 556 nm
SMILES: C[N+]1=C(/C=C/C=C2/N(CCC[N+](C)(C)C)c3ccc(Br)cc3C2(C)C)C(C)(C)c2ccccc21

absorption maximum (in CCO): 382 nm
SMILES: Cc1c(COC(=O)Cc2c[nH]c3ccccc23)n2c(OCC(=O)Cc3c[nH]c4ccccc34)c(C)c(=O)n2c1=O

absorption maximum (in ClCCl): 507 nm
SMILES: c1ccc(C2=C(c3ccccc3)c3cccc4c3c(cc3nc5cc(-c6ccccc6)c(-c6ccccc6)cc5nc34)O2)cc1

absorption maximum (in CC#N): 438 nm
SMILES: C(=C\c1nc(-c2ccccc2)c2ccccn12)/c1nc(-c2ccccc2)c2ccccn12

absorption maximum (in CS(C)=O): 480 nm | absorption maximum (in ClCCl): 447 nm
SMILES: O=c1oc2ccccc2c2c1c(=O)oc1c3ccccc3cc(O)c12
